Laboratory results taken from PubChem BioAssay AID1963970 (Molecular Pharmacology Branch, DTP, NCI, 2024).
Several values for one entry are separate records, joined by “and”; a condition that tells them apart may be missing. Equal entries are not always repeated.

Tested on: 931267-113-T-J1-PDC multicell spheroid viability
Assay: Anticancer human tumor 931267-113-T-J1-PDC patient-derived colon adenocarcinoma cell line growth inhibition [PI3K]
Settings: for viability, T/C: stronger effect = lower value
Outline: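 Combination activity was assessed by viability in multicellular tumor spheroids carrying HUVEC and MSC components. Agents were tested with PI3K inhibitors from a Cmax-based top dose (or 10 microM) downward in half-log increments.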
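Also: viability read 7 days after compound addition.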

## Cn1cnc2c(F)c(Nc3ccc(Br)cc3Cl)c(C(=O)NOCCO)cc21 + CC(Nc1ncnc2nc[nH]c12)c1cc2cccc(Cl)c2c(=O)n1-c1ccccc1
Curve of first compound, second compound 0.0316 µM
  IC50: 123 nM
Curve of first compound, second compound 0.1 µM
  IC50: 133 nM
Curve of first compound, second compound 0.316 µM
  IC50: 117 nM
Curve of first compound, second compound 1 µM
  IC50: 107 nM
Curve of first compound, second compound 3.16 µM
  IC50: 96.7 nM
Curve of first compound, second compound 10 µM
  IC50: 61.6 nM
Second compound 0.0316 µM, first compound 0.00949 µM
  viability, T/C: 84%
Second compound 0.0316 µM, first compound 0.03 µM
  viability, T/C: 71.9%
Second compound 0.0316 µM, first compound 0.0949 µM
  viability, T/C: 51.7%
Second compound 0.0316 µM, first compound 0.3 µM
  viability, T/C: 38.4%
Second compound 0.0316 µM, first compound 0.949 µM
  viability, T/C: 23%
Second compound 0.0316 µM, first compound 3 µM
  viability, T/C: 12.8%
Second compound 0.1 µM, first compound 0.00949 µM
  viability, T/C: 89.1%
Second compound 0.1 µM, first compound 0.03 µM
  viability, T/C: 80.1%
Second compound 0.1 µM, first compound 0.0949 µM
  viability, T/C: 55.4%
Second compound 0.1 µM, first compound 0.3 µM
  viability, T/C: 33.1%
Second compound 0.1 µM, first compound 0.949 µM
  viability, T/C: 25.1%
Second compound 0.1 µM, first compound 3 µM
  viability, T/C: 13.6%
Second compound 0.316 µM, first compound 0.00949 µM
  viability, T/C: 92.1%
Second compound 0.316 µM, first compound 0.03 µM
  viability, T/C: 77.9%
Second compound 0.316 µM, first compound 0.0949 µM
  viability, T/C: 51.8%
Second compound 0.316 µM, first compound 0.3 µM
  viability, T/C: 33.4%
Second compound 0.316 µM, first compound 0.949 µM
  viability, T/C: 23.1%
Second compound 0.316 µM, first compound 3 µM
  viability, T/C: 12.9%
Second compound 1 µM, first compound 0.00949 µM
  viability, T/C: 88.8%
Second compound 1 µM, first compound 0.03 µM
  viability, T/C: 72%
Second compound 1 µM, first compound 0.0949 µM
  viability, T/C: 51.6%
Second compound 1 µM, first compound 0.3 µM
  viability, T/C: 32.3%
Second compound 1 µM, first compound 0.949 µM
  viability, T/C: 24.4%
Second compound 1 µM, first compound 3 µM
  viability, T/C: 10.6%
Second compound 3.16 µM, first compound 0.00949 µM
  viability, T/C: 74%
Second compound 3.16 µM, first compound 0.03 µM
  viability, T/C: 69.2%
Second compound 3.16 µM, first compound 0.0949 µM
  viability, T/C: 48.1%
Second compound 3.16 µM, first compound 0.3 µM
  viability, T/C: 31.9%
Second compound 3.16 µM, first compound 0.949 µM
  viability, T/C: 21.4%
Second compound 3.16 µM, first compound 3 µM
  viability, T/C: 11%
Second compound 10 µM, first compound 0.00949 µM
  viability, T/C: 79.2%
Second compound 10 µM, first compound 0.03 µM
  viability, T/C: 62.8%
Second compound 10 µM, first compound 0.0949 µM
  viability, T/C: 41%
Second compound 10 µM, first compound 0.3 µM
  viability, T/C: 29%
Second compound 10 µM, first compound 0.949 µM
  viability, T/C: 15.2%
Second compound 10 µM, first compound 3 µM
  viability, T/C: 7.35%

## CCN1CCN(Cc2ccc(Nc3ncc(F)c(-c4cc(F)c5nc(C)n(C(C)C)c5c4)n3)nc2)CC1
Compound 0.00316 µM
  viability, T/C: 101% [middle of 4 runs]
Compound 0.01 µM
  viability, T/C: 105% (2×) and 103% and 99.8%
Compound 0.0316 µM
  viability, T/C: 103% [middle of 4 runs]
Compound 0.1 µM
  viability, T/C: 102% (2×) and 100% and 96.4%
Compound 0.316 µM
  viability, T/C: 96.2% [middle of 4 runs]
Compound 1 µM
  viability, T/C: 84.8% [middle of 4 runs]
Curve of compound
  IC50: > 1000 nM
